# Test results published in US6870029B2, “Method of diagnosing and treating gliomas” (priority 1995, dated 2005).
# Several values for one entry are separate records, joined by “and”; a condition that tells them apart may be missing. Equal values may be shown once. Read-outs that look alike come from different tables or passages of the source.
# Key:
# [1] = test system: Glioma Chloride Channel (GCC); format: cell-based, human; settings: for reversibility of current block: after bath application, short exposure times for DIDS and DNDS; for IC50: electrophysiologically determined, read-out: IC50 for inhibition of GCC currents
# From the text: Current and voltage recordings were obtained using standard whole-cell patch-clamp techniques with an Axopatch-1D amplifier (Axon Instruments). Patch-pipettes were made from thin-walled borosilicate glass (WPI, TW150F-40) o.d. 1.5 mm, i.d. 1.2 mm and were filled with a solution containing (in mM): KCl 145, MgCl2 1, CaCl2 0.2, EGTA 10, Hepes 10, pH adjusted to 7.4 using Tris, unless otherwise noted. Pipettes were not fire-polished and typically had resistances between 2-5MΩ. Cells were continuously superperfused with saline solution, allowing for rapid (<30 seconds) exchange of bath volume. The standard bath solution contained, in mM: NaCl 122.6, KCl 5, MgCl2 1.2, CaCl2 1.0, Na2HPO4 2.0, NaH2PO4 0.4, NaHCO3 25.0, Na2SO4 1.2, Glucose 10.5 (bubbled with 5% CO2/95% O2). Drugs used to block ionic conductances were prepared freshly as stock solutions for each experiment and added to bath solution. Osmolality was measured with a vapor pressure osmometer (Wescor, Logan, Utah) and adjusted to 308-312 mOsms.
# For whole-cell recordings, cell capacitance compensation and series resistance compensation were used to minimize voltage errors. The amplifier reading of capacitance was used as the value for the whole-cell membrane capacitance. Series resistances, monitored at regular intervals throughout each experiment, were usually 5-10 MΩ, and series resistance compensation was typically set to ˜80%. Entrance potential, read from the amplifier at the time of entering the whole-cell configuration, was used to determine each cell's resting potential. Voltage-clamp recordings were used to search for voltage-activated currents and stimulation profiles were altered to fully activate chloride channels (pulses from −105 to 195 mV). Where indicated, P/4 leak subtraction was obtained using hyperpolarizing voltage steps to obtain leak currents. Current reversal potential (voltage at which I=0) was determined from IV plots in which tail current amplitudes were plotted as a function of voltage. Effects of channel blockers were assessed by comparing current traces, entrance potential, and reversal potential prior to and following drug application. Snap photographs were taken of each recorded cell using a CCD camera and a video printer for cataloging of cell size, location, and morphology. Recordings were made at room temperature, typically 20-25° C.
# Chlorotoxin is a protein having 36 amino acids that is derived from scorpion venom toxin that was originally described as a blocker of small conductance Cl^− channels in epithelial cells (8).
# For the following studies, the electrophysiology format was as follows: standard current and voltage recordings were obtained using the whole-cell patch-clamp technique with an Axopatch-1D amplifier (Axon Instruments). Cells were continuously superperfused with bicarbonate-buffered saline at room temperature containing, in mM: NaCl 122.6, KCl 5, MgCl2 1.2, CaCl2 1.0, Na2HPO4 2.0, NaH2PO4 0.4, NaHCO3 25.0, Na2SO4 1.2, Glucose 10.5 (bubbled with 5% CO2). Electrodes (WPI, TW150F-40) o.d. 1.5 mm, i.d. 1.2 mm were filled with (in mM): KCl 145, MgCl2 1, CaCl2 0.2, EGTA 10, Hepes 10, pH adjusted to 7.4 using Tris, unless otherwise noted. Entrance potential, read from the amplifier at the time of entering the whole-cell configuration, was used to determine each cell's resting potential. Voltage-clamp recordings were used to search for voltage-activated currents and stimulation profiles were altered to fully activate chloride channels (pulses from −120 to 120 mV).
# astrocytoma cells = assay: Proliferation assay, 3H-thymidine incorporation; format: cell-based, human; settings: 24 hour incubation, vs untreated control
# Procedure: Proliferation was studied quantitatively by determining incorporation of ^3H-thymidine. In brief, cells were incubated for 24 hours in the continuous presence or absence of Ara-C (cytosine arabinoside, 10 μM), DIDS (200 μM), DNDS (200 μM), zinc (200 μM) or chlorotoxin (600 nM). Cells were incubated with 1 μCi/ml radiolabelled thymidine ([methyl-^3H]thymidine) for the final 4 hours (at 37° C.). Culture dishes were rinsed three times with ice-cold PBS and solublized with 0.3N NaOH for 30 minutes at 37° C. One aliquot ([…]) was used for cell protein determination using the bicinchroninic assay (BCA; Pierce Rockford, Ill.). The remaining cell suspension was mixed with Ultima Gold, and radioactivity was determined with a scintillation counter. The results were expressed as cpm/μg protein.
# Given that these Cl^− currents were consistently present in all astrocytoma cells tested from both primary cultures of surgical specimens and from established human astrocytoma cell lines, whether Cl^− currents influence astrocytoma proliferation was examined. Although the effects of Cl^− channel blockade on cell proliferation have been reported in Schwann cells (40) and in B lymphocytes (7), the importance of Cl^− ion channels in glia cells has never been shown. Cells were cultured in the continuous presence of the anti-mitotic agent Ara-C (10 μM), DIDS (200 μM), DNDS (200 μM), Zinc (200 μM), or chlorotoxin (600 nM) and compared the rate of proliferation to untreated (control) sister cultures. Cells were treated at 2 days in culture (DIC) and proliferation was assayed 24 hours later, at 3 DIC, a period of high proliferation of untreated control cultures. As expected, incubation in the anti-mitotic agent Ara-C led to a 70% decrease in proliferation (SD=1.3309, N=17).
# glioma cells = assay: Immunotoxin (saporin) killing targeted to the Ctx binding site; format: cell-based, human; settings: pre-treatment of cultures with 6 μM
# Procedure: FIG. 19 show the glioma cells were exposed to 600 nM Ctx-GST followed by a mouse aGST and a goat anti-mouse antibody conjugated to saporin.
# Using this approach, glioma cells were first treated with Ctx-GST, followed by a mouse anti-GST monoclonal antibody and lastly a goat anti-mouse antibody conjugated to saporin.
# normal human glial cells = assay: 125[I]-chlorotoxin binding to non-tumor cells; settings: normal human glial cells and mixed brain cell cultures
# Procedure: Therefore, binding affinity was determined using (^125[I]-Ctx) radiolabeled with ^125[I]-sodium iodide by the chloramine-T method.
# [2] = applied to the cytosolic face, 200 μM
molecule,measurement,setting,value
glutathione-S-transferase [GST],reduction in Cl− currents,[1],ineffective
[Zn] [zinc],decrease in proliferation (3H-thymidine incorporation),astrocytoma cells; 200 μM,72.6%
"O=[N+]([O-])c1ccc(C=Cc2ccc([N+](=O)[O-])cc2S(=O)(=O)O)c(S(=O)(=O)O)c1 [DNDS, 4,4′-Dinitrostilbene-2,2′-disulfonic acid]",reversibility of current block,[1],partly reversible
same,block of currents,[1]; [2],62%
same,decrease in proliferation (3H-thymidine incorporation),astrocytoma cells; 200 μM,38.2%
[Cd] [cadmium],block of currents,[1]; 25 mM as printed,42%
same,decrease in peak currents,[1]; bath application of 25 μM,42%±18.5
"O=S(=O)(O)c1cc(N=C=S)ccc1C=Cc1ccc(N=C=S)cc1S(=O)(=O)O [DIDS, 4,4′-Diisothiocyanostilbene-2,2′-disulfonic acid]",reversibility of current block,[1],partly reversible
same,block of currents,[1]; [2],50%±10.9
same,decrease in proliferation (3H-thymidine incorporation),astrocytoma cells; 200 μM,16.4%
"Nc1ccn([C@@H]2O[C@H](CO)[C@@H](O)[C@@H]2O)c(=O)n1 [Ara-C, cytosine arabinoside]",decrease in proliferation (3H-thymidine incorporation),astrocytoma cells; 10 μM,70%
chlorotoxin,prevention of immunotoxin cell death,glioma cells,largely prevented
same,specific binding,normal human glial cells,no specific Ctx binding
same,reversibility of current block,[1],partially reversible
same,block of Cl− currents,"[1]; applied to the cytoplasmic face, 2.5 μM",60.44%
same,decrease of outward currents,"[1]; bath application of 590 nM, STTG1 cells, voltage steps −105 to +195 mV",81%
same,IC50,[1]; listed as Ctx,~950 nM
same,IC50,[1],950 nM
same,increase in proliferation (3H-thymidine incorporation),astrocytoma cells; 600 nM,37.8% and 37%
